Results as given in patent US10866241B2, “Method for the prognosis and treatment of cancer metastasis” (Fundació Institut de Recerca Biomèdica (IRB Barcelona), priority 2012, dated 2020).

Tests used:
bone metastasis = assay: Prophylactic treatment for bone metastasis in subject with triple negative breast cancer and increased c-MAF; type: in vivo; details: 120 mg SC once monthly for 6 months, then every 3 months for 4 and a half years, with oral calcium and vitamin D
Protocol: A tumor tissue sample is obtained from a subject diagnosed as having triple negative breast cancer. The sample is sectioned into thin slices of tissue and embedded in paraffin. Each paraffin section is mounted on a slide. The slides are incubated with anti-MAF antibody. For visualization and detection of antibodies bound to MAF, antibodies conjugated with fluorescent dye are used. The slides are visualized by providing excitation beams to the fluorescent dyes. Images of fluorescent signals are taken by fluorescent microscopes. The relative expression level of c-MAF in the tumor sample is obtained by comparing the fluorescent signal in the tumor sample to that of a reference sample. The intensity in the tumor sample is correlated with the intensity in the reference sample, wherein a higher intensity in the tumor sample compared to the reference sample correlates with an increased risk of the subject having primary breast cancer metastasis to the bone. Alternatively, 16q22-24 locus,16q23 locus or c-MAF gene amplification or translocation determined using an in situ hybridization technique or similar
Based on the prognosis of increased risk of bone metastasis, the subject is administered the anti-RANKL antibody Denosumab as a prophylactic treatment for bone metastasis. 120 mg of Denosumab is administered to the subject subcutaneously (SC) once monthly for 6 months. […]

[1] = system: c-MAF expressing MCF7 breast cancer cells; assay: Bone metastasis of c-MAF expressing MCF7 cells injected intracardiacally, with or without PTHLH-AN; type: in vivo, mouse; details: 6 μg twice a day intraperitoneally in PBS, 47 days, vs PBS control (FIG. 11d,e)
Protocol: d) Parental, c-MAF short and long-expressing parental cells labeled with the luciferase gene were injected into the left ventricle of mouse and bone colonization was analyzed by in vivo bioluminiscent imaging. The mice injected with c-MAF short and long expressing parental cells were treated or not with PTHLH antagonist peptide (7-34) inoculated intraperitoneally (6 μg/animal) twice a day during the course of the experiment. The plot represents the total photon flux ex vivo at the experiment end point, which reflects the number of metastatic cells per lesion (left panel). Osteolytic bone metastasis lesions are depicted (right panel)
e) X-RAY (CT-scan) images of representative osteolytic lesions per group. […] TRAP positive osteoclast cells (Black) along bone tumor interface from lesions were counted in at least four different fields from each independent mouse and plotted with SD values. […] The statistical differences between groups are evaluated by means of the two-tailed wilcoxon test. […]
To test whether PTHLH mediates c-MAF driven bone metastasis in breast cancer cells, we injected c-MAF expressing MCF7 breast cancer cells intracardiacally and evaluated its capacity to establish and grow bone metastasis in the presence or absence of PTHLH-AN during the span of 47 days. […]

[2] = system: osteoclast differentiation of mouse bone marrow-derived precursor cells; assay: Osteoclast differentiation from bone marrow cells with conditioned medium, TRAP technique; type: cell-based; details: co-incubation with PTHLH antagonist peptide (7-34), 5 μg/ml (FIG. 11c)
Protocol: b) Assay of osteoclast differentiation from mouse bone marrow-derived precursor cells using conditioned medium originated from MCF7 parental cells or cells over-expressing any of the c-MAF isoforms (short—short isoform and long—long isoform). The number of osteoclasts is measured by means of the TRAP technique (>3 Multinucleated cells).
c) Bone marrow cells treated with 50:50 osteoclast differentiation and conditioned media (CM) parental, c-MAF short and Long-expressing parental cells and BoM2 bone metastatic MCF7 cell derivatives or without CM but with human PTHLH antagonist peptide (7-34)(5 μg/ml), The number of osteoclasts is measured by means of the TRAP technique (Ostoclasts are >3 Multinucleated cells, Highlighted by white arrows) and normalized to control.
Without a direct activity of c-MAF in providing bone metastasis functions to breast cancer cells, c-MAF may instead transcriptionally control the activity of genes promoting homing and bone remodeling capabilities to colonize the bone. PTHLH expression was under the control of c-MAF. An observation confirmed by qPCR analysis (FIG. 11a). Further, patient breast cancer metastasis (GSE14020) growing in the bone retained c-MAF expression compared to metastasis elsewhere (FIG. 11b). Moreover, 77% of metastasis expressing MAF and PTHLH above the average were bone metastasis (FIG. 11b). […]

Substance	evidence of bone metastasis after 5 years (bone metastasis)	extent of the hind limb osteolytic lesions [1]	number of osteoclast (TRAP+ cells) at the metastatic lesion perimeter [1]	induction of osteoclast differentiation in vitro by conditioned media from cells expressing c-MAF [2]
Denosumab: fully human monoclonal antibody which binds to RANKL and prevents its activation, CAS number 615258-40-7	free of any evidence of bone-metastasis			
PTHLH-AN: human PTHLH antagonist peptide (7-34Aa)		dramatic reduction	reduction in the number of osteoclast	prevented
